Laboratory results from the NIST ThermoML archive (doi:10.1021/je020140j).

Experiment: xn = mol fraction of the nth substance listed
Conditions: 101 kPa, Liquid

OCCO [1,2-ethanediol] + O
Conditions | mass density [kg/m3] | viscosity [mPa·s]
293.15 K, x1 = 0.0312 | 1011.7 | 1.337
293.15 K, x1 = 0.0676 | 1024.6 | 1.785
293.15 K, x1 = 0.1105 | 1037.2 | 2.272
293.15 K, x1 = 0.162 | 1051.3 | 2.951
293.15 K, x1 = 0.2248 | 1064.8 | 3.941
293.15 K, x1 = 0.3031 | 1076.7 | 5.102
293.15 K, x1 = 0.4036 | 1087.8 | 6.898
293.15 K, x1 = 0.537 | 1097.8 | 9.696
293.15 K, x1 = 0.723 | 1105.7 | 14.04
293.15 K, x1 = 1 | 1113.7 | 20.83
303.15 K, x1 = 0.0312 | 1006.1 | 1.047
303.15 K, x1 = 0.0676 | 1018.4 | 1.331
303.15 K, x1 = 0.1105 | 1030 | 1.694
303.15 K, x1 = 0.162 | 1043.4 | 2.2
303.15 K, x1 = 0.2248 | 1056.2 | 2.832
303.15 K, x1 = 0.3031 | 1067.5 | 3.728
303.15 K, x1 = 0.4036 | 1078 | 4.955
303.15 K, x1 = 0.537 | 1087 | 6.749
303.15 K, x1 = 0.723 | – | 9.399
303.15 K, x1 = 1 | – | 13.65
313.15 K, x1 = 0.0312 | 1001.3 | 0.835
313.15 K, x1 = 0.0676 | 1010.6 | 1.022
313.15 K, x1 = 0.1105 | 1021.9 | 1.319
313.15 K, x1 = 0.162 | 1034.7 | 1.677
313.15 K, x1 = 0.2248 | 1046.8 | 2.132
313.15 K, x1 = 0.3031 | 1057.9 | 2.756
313.15 K, x1 = 0.4036 | 1067.9 | 3.575
313.15 K, x1 = 0.537 | 1077.1 | 4.776
313.15 K, x1 = 0.723 | 1085.8 | 6.449
313.15 K, x1 = 1 | 1093.6 | 9.443
323.15 K, x1 = 0.0312 | 994.9 | 0.685
323.15 K, x1 = 0.0676 | 1005.1 | 0.868
323.15 K, x1 = 0.1105 | 1015.1 | 1.064
323.15 K, x1 = 0.162 | 1027.4 | 1.322
323.15 K, x1 = 0.2248 | 1038.6 | 1.657
323.15 K, x1 = 0.3031 | 1049.2 | 2.113
323.15 K, x1 = 0.4036 | 1059 | 2.709
323.15 K, x1 = 0.537 | 1068 | 3.593
323.15 K, x1 = 0.723 | 1076.7 | 4.837
323.15 K, x1 = 1 | 1084.7 | 6.992
333.15 K, x1 = 0.0312 | 989.8 | 0.576
333.15 K, x1 = 0.0676 | 997.9 | 0.713
333.15 K, x1 = 0.1105 | 1007.2 | 0.875
333.15 K, x1 = 0.162 | 1019.2 | 1.073
333.15 K, x1 = 0.2248 | 1030.3 | 1.312
333.15 K, x1 = 0.3031 | 1040.6 | 1.626
333.15 K, x1 = 0.4036 | 1050.3 | 2.053
333.15 K, x1 = 0.537 | 1059.2 | 2.684
333.15 K, x1 = 0.723 | 1068 | 3.51
333.15 K, x1 = 1 | 1076.4 | 5.06
343.15 K, x1 = 0.0312 | 983.7 | 0.498
343.15 K, x1 = 0.0676 | 991.5 | 0.597
343.15 K, x1 = 0.1105 | 1000.4 | 0.728
343.15 K, x1 = 0.162 | 1011.5 | 0.881
343.15 K, x1 = 0.2248 | 1022.3 | 1.071
343.15 K, x1 = 0.3031 | 1031.9 | 1.32
343.15 K, x1 = 0.4036 | 1041.3 | 1.648
343.15 K, x1 = 0.537 | 1050.1 | 2.136
343.15 K, x1 = 0.723 | 1058.8 | 2.817
343.15 K, x1 = 1 | 1067.5 | 3.987
353.15 K, x1 = 0.0312 | 977.1 | 0.434
353.15 K, x1 = 0.0676 | 984.7 | 0.525
353.15 K, x1 = 0.1105 | 993.6 | 0.629
353.15 K, x1 = 0.162 | 1003.8 | 0.758
353.15 K, x1 = 0.2248 | 1014 | 0.906
353.15 K, x1 = 0.3031 | 1023.7 | 1.1
353.15 K, x1 = 0.4036 | 1033 | 1.359
353.15 K, x1 = 0.537 | 1042 | 1.748
353.15 K, x1 = 0.723 | 1050.9 | 2.296
353.15 K, x1 = 1 | 1060 | 3.021
